Laboratory results as given in US20250176553A1, “SOLUTION FOR […] AND METHOD OF PRODUCING THEREOF” (OCT, Inc., priority 2022, published 2025).
“And” between values parts separate entries of the source, which are not always exact repeats. Equal values may be shown once. Read-outs that look alike come from different tables or passages of the source.

Tests used:
[1] = for Viscosity: 4 cc added to 150 g test sample, 25° C.
Procedure: The starch syrup used was manufactured by KATO SANGYO CO., LTD. (product name “Kanpy starch syrup”) and the vegetable jelly used was from COOP (manufacturer: Ina Food Industry Co., Ltd.) (product name “Coop Agar”).
Solutions for destroying biofilms adjusted to various pH values and a test solution were added to test mixtures of starch syrup and Coop Agar and the viscosity of each mixture was measured. Viscosity was measured using a “Viscotester (high viscosity type) VT-06” manufactured by RION Co., Ltd.
First, starch syrup and Coop Agar were mixed in a beaker at a ratio of 34 to 5 and the viscosity was measured with a Viscotester (high viscosity type) VT-06. […] The mixture of starch syrup and Coop Agar to be used for the test (test sample) was prepared weighing 150 grams. […] To 150 g of the test sample, 4 cc of the test solution was added and the measurement was performed with a Viscotester (high viscosity type) VT-06. The room temperature was 25° C. and humidity was 63% when the test was conducted.

[2] = system: Streptococcus mutans biofilms; conditions: for Absorbance, Average value: average of samples 1-6; for Absorbance: individual samples 1-6, medium replaced after biofilm formation, further 24 hours
Description: (§1) FIGS. 3 to 6 show the experimental results in which Streptococcus mutans strains are actually used. Streptococcus mutans is a facultative anaerobe and a gram-positive streptococcus. It produces insoluble, sticky glucans that stick to tooth surfaces. It is one of the bacteria that mainly cause dental caries. THB (TODD-HEWITT BROTH) supplemented with 2% (w/v) sucrose was used as the medium. Sucrose is a sugar composed of the monosaccharides glucose and fructose with an α-1,2-glycosidic linkage and one of the disaccharides. THB manufactured by Becton, Dickinson and Company was used. For sucrose, “CASRN” manufactured by FUJIFILM Wako Pure Chemical Corporation was used. The plate used for culture was a Thermo Scientific Nunclon Delta Surface 96 well. The incubator used was a Panasonic multi-gas incubator MCO-5MUV-PJ. Culturing was conducted at 37° C. under an atmosphere of 5% CO2 gas, 5% O2 gas and 90% N2 gas.
(§2) Devices and the like used to measure residual biofilms are described below. For staining, 0.1% Crystal Violet from FUJIFILM Wako Pure Chemical Corporation was used. It was dissolved in distilled water to 0.1% (w/v).
(§3) Life Technologies EVOS XL Core was used as the microscope for photography. […] Co., Ltd. was used as the absorption spectrometer. The data processing software was “SF6” and the absorbance wavelength was 590 nm.
(§4) Streptococcus mutans was diluted in 2% sucrose-containing THB and 10 inoculated samples of 100 μL each were plated onto cell culture plates (Thermo Scientific Nunclon Delta Surface 96well). The samples were then cultured in a multi-gas incubator for 24 hours to allow biofilms to form on the bottom of each plate.
The media were removed and the plates were washed with distilled water 24 hours after the start of cultivation. […] The samples were further cultured in a multi-gas incubator for 24 hours. After culturing, the plates were washed with distilled water and stained with 0.1% Crystal Violet solution for 10 minutes. After staining, the plates were washed again with distilled water, dried and then observed and photographed using a bright field inverted microscope.

[3] = system: hibiscus leaf; conditions: adjusted to pH 0.5; leaf surface wetted, observed after 20 hours
Procedure: A hibiscus leaf was divided into left and right halves by the central vein. […] The surfaces of the half leaves were observed after 20 hours.

[4] = system: Streptococcus mutans biofilms; conditions: for Absorbance, Average value: average of samples 1-6; for Absorbance, Average value / Absorbance: 590 nm; for Absorbance: individual samples 1-6, 24 hours culture
Description: as §1, §2, §3
Streptococcus mutans was diluted in 2% sucrose-containing THB and 10 inoculated samples of 100 μL each were plated onto cell culture plates (Thermo Scientific Nunclon Delta Surface 96well). […] No test solution was added to one of the 10 inoculated samples.
(§5) The samples were then cultured in a multi-gas incubator for 24 hours to allow biofilms to form on the bottom of each plate. After culturing, the plates were washed with distilled water and stained with 0.1% Crystal Violet solution for 10 minutes. After staining, the plates were washed again with distilled water, dried and then observed and photographed with a bright field inverted microscope.
(§6) Crystal Violet was then extracted with 100 μL of 99.5% ethanol (FUJIFILM Wako Pure Chemical Corporation), and the absorbance was measured at a wavelength of 590 nm using an absorption spectrometer grating microplate reader.

[5] = system: Fn bacteria biofilms; conditions: for Absorbance, Average value: average of samples 1-5
Procedure: THB (TODD-HEWITT BROTH) supplemented with 2% (w/v) sucrose was used as the medium. Sucrose is a sugar composed of the monosaccharides glucose and fructose with an α-1,2-glycosidic linkage and one of the disaccharides. THB manufactured by Becton, Dickinson and Company was used. For sucrose, “CASRN” manufactured by FUJIFILM Wako Pure Chemical Corporation was used. The plate used for culture was a Thermo Scientific Nunclon Delta Surface 96 well. The incubator used was a Panasonic multi-gas incubator MCO-5MUV-PJ. Culturing was conducted at 37° C. under an atmosphere of 5% CO2 gas, 5% O2 gas and 90% N2 gas.
Fn bacteria were diluted in 2% sucrose-containing THB and 10 inoculated samples of […] each were plated onto cell culture plates (Thermo Scientific Nunclon Delta Surface 96well). […] No test solution was added to one of the […] inoculated samples.
as §5, with “washed” for “washed again”, “water again” for “water, dried”, “dried.” for “then observed and photographed with a bright field inverted microscope.”
as §6

[6] = system: Streptococcus mutans biofilms; conditions: for Absorbance, Average value: average of samples 1-6, 590 nm; for Absorbance trend: FIG. 5
Description: as §1, §2, §3, §4
The samples were further cultured in a multi-gas incubator for 24 hours. After culturing, the plates were washed with distilled water and stained with 0.1% Crystal Violet solution for 10 minutes. After staining, the plates were washed again with distilled water, dried and then observed and photographed using a bright field inverted microscope.
as §6

[2H]OS(=O)(=O)O[2H] [deuterated sulfuric acid (D2SO4)]
Viscosity reduction compared to pH 7.0 ([1]; pH 0.5): ⅓
Viscosity ([1]; test solution pH 0.5): 130 dPa · s
Viscosity ([1]; test solution pH 2.0): 150 dPa · s
Viscosity ([1]; test solution pH 3.0): 180 dPa · s
Viscosity ([1]; test solution pH 4.0): 210 dPa · s
Viscosity ([1]; test solution pH 5.0): 240 dPa · s
Viscosity ([1]; test solution pH 6.0): 310 dPa · s
Colour of stained plate (photograph, remaining biofilm) ([2]; lower pH values, FIG. 3 lower panel): more biofilms were destroyed
Absorbance, Average value ([2]; pH 0.5): 0.590
Absorbance ([2]; pH 0.5): 0.438 and 0.570
Absorbance, Average value ([2]; pH 0.8): 0.729
Absorbance ([2]; pH 0.8): 0.649 and 0.678
Absorbance ([2]; pH 1.2): 0.948 and 0.729 and 0.723
Absorbance, Average value ([2]; pH 2.0): 0.989
Absorbance ([2]; pH 2.0): 0.951 and 0.966 and 0.921
Absorbance, Average value ([2]; pH 2.3): 1.083
Absorbance ([2]; pH 2.3): 1.091 and 1.052 and 1.038
Absorbance, Average value ([2]; pH 2.7): 1.098
Absorbance ([2]; pH 2.7): 1.167 and 1.149 and 1.070
Absorbance, Average value ([2]; pH 3.0): 1.038
Absorbance ([2]; pH 3.0): 1.036 and 1.113
Absorbance, Average value ([2]; pH 3.3): 1.113
Absorbance ([2]; pH 3.3): 1.044 and 1.117 and 1.054
Absorbance, Average value ([2]; pH 3.7): 1.107
Absorbance ([2]; pH 3.7): 1.157 and 1.116 and 1.040
Biofilm destruction from absorbance trend ([2]; pH below 2.0, FIG. 6): biofilms are destroyed
Leaf surface damage (white spotted areas, dead leaf cells) [3]: the white spotted areas surrounded by dotted lines are significantly smaller
Colour of stained plate (photograph, remaining biofilm) ([4]; pH 0.8, 1.2 and 1.5, FIG. 3 upper panel): biofilm formation is significantly inhibited and destroyed
Absorbance, Average value ([4]; pH 0.8): 0.089
Absorbance ([4]; pH 0.8): 0.089 (3×) and 0.090 (2×) and 0.088
Absorbance, Average value ([4]; pH 1.2): 0.096
Absorbance, Average value ([4]; pH 1.5): 0.100
Absorbance ([4]; pH 2.3): 0.734
Absorbance ([4]; pH 3.3): 0.876
Absorbance ([4]; pH 3.7): 0.874
Absorbance ([4]; pH 4.0): 0.733
Biofilm formation from absorbance trend ([4]; pH value below 2.3, FIG. 4): almost no biofilm was formed
Absorbance, Average value ([5]; pH 0.5, 590 nm): 0.123
Absorbance ([5]; pH 0.5, individual samples 1-5, 590 nm, 24 hours culture): 0.123 (2×) and 0.124 (2×) and 0.122
Absorbance, Average value ([5]; pH 2.0, 590 nm): 0.320
Absorbance, Average value ([5]; pH 3.0, 590 nm): 0.386
Absorbance, Average value ([5]; pH 4.0, 590 nm): 0.425
Absorbance, Average value ([5]; pH 5.0, 590 nm): 0.441
Absorbance, Average value ([5]; pH 6.0, 590 nm): 0.465
Biofilm formation from absorbance trend ([5]; pH value below 4.5, compared to pH 6.0, FIG. 7): biofilm formation was made more difficult
Colour of stained plate (photograph, remaining biofilm) ([6]; lower pH values, FIG. 3 middle panel): more biofilms were destroyed
Absorbance, Average value ([6]; pH 0.8): 0.678
Absorbance, Average value ([6]; pH 1.2): 1.164
Absorbance, Average value ([6]; pH 1.5): 1.250
Absorbance, Average value ([6]; pH 2.3): 1.288
Absorbance, Average value ([6]; pH 2.7): 1.375
Absorbance, Average value ([6]; pH 3.0): 1.457
Absorbance, Average value ([6]; pH 3.3): 1.226
Absorbance, Average value ([6]; pH 3.7): 1.354
Absorbance, Average value ([6]; pH 4.0): 1.346
Absorbance trend ([6]; pH value below 1.5): absorbance decreased rapidly
Absorbance trend ([6]; pH value below 3.0): absorbance decreased gradually

O=S(=O)(O)O [sulfuric acid (H2SO4), reference compound]
Leaf surface damage (white spotted areas, dead leaf cells) [3]: areas where leaf cells are dead
